From patent US20230183237A1, “COMPETITIVE AND NONCOMPETITIVE INHIBITORS OF THE MUSCARINIC ACETYLCHOLINE RECEPTOR M5” (Vanderbilt University, priority 2020, published 2023)

Biological target: T1, hM5 (Homo sapiens, UniProt P08912)
T1 construct: expressed in transfected cells
T1 sequence (P08912 1-532): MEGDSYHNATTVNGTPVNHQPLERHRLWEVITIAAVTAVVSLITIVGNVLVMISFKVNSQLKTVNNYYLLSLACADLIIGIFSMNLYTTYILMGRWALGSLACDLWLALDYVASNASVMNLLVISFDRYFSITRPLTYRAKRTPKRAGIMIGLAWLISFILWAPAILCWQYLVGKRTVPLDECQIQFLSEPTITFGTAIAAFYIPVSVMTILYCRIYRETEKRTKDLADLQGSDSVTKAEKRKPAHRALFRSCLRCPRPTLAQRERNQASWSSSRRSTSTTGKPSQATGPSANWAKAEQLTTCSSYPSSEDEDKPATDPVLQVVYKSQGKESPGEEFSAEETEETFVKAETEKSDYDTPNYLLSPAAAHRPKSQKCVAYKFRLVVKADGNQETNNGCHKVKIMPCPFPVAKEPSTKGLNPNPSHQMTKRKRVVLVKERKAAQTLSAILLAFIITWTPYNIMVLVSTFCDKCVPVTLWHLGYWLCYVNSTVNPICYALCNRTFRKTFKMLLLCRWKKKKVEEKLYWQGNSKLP
Experiment: Calcium mobilization concentration-response (IC50 vs EC80 acetylcholine), CHO hM5
Type: cell-based
Details: CELL LINE hM5; calcium mobilization, EC80 acetylcholine addition; read-out: IC50
Method: Initial, single point (10 μM) compound characterization was performed in stable Chinese Hamster Ovary (CHO) cell lines constitutively expressing human M5 receptors. These were plated at 15,000 cells per 20 μL per well in Greiner 384-well black-walled, TC-treated, clear-bottomed plates (Fisher) in Ham's F12 medium supplemented with 10% FBS and 20 mM HEPES. Cells were incubated overnight at 37° C. under 5% CO2. The following day, medium was exchanged with assay buffer (Hank's Balanced Salt Solution supplemented with 20 mM HEPES and 2.5 mM Probenecid, pH 7.4) leaving 20 μL of assay buffer in each well. […] The cells were then incubated 50 minutes at 37° C. under 5% CO2. The assay buffer plus dye was then exchanged with fresh assay buffer leaving a volume of 20 μL in each well. Test compounds were diluted into assay buffer to a 2X (20 μM) concentration in 0.2% dimethylsulfoxide (DMSO) in columns 3-22 with matching DMSO concentration in columns 1, 2, 23, and […]; compounds were added to the assay for a final concentration of 10 μM and a final DMSO concentration of 0.1%.
Either an FDSS (Hamamatsu) or Panoptic (WaveFront Biosciences) kinetic imaging plate reader was used for assay execution and measurement of calcium flux. After establishing baseline fluorescence, test compounds (20 μL) were added to the cells using the reader's integrated pipettor and allowed to equilibrate for 140 seconds before addition of the […] concentration of acetylcholine (10 μL) along with vehicle in selected DMSO-only wells in the outer two columns . […] The raw fluorescence data from each well was normalized to the corresponding initial fluorescence reading (static ratio). The maximum fluorescence value following each addition was determined and the minimum value within that same timeframe was subtracted for each well then normalized to the average of the ECffiax maximum-minimum response, providing a % AChmax value for each addition for each well. The single point values represent mean values determined within the ECsu addition timeframe obtained from at least three independent determinations performed in triplicate or greater (error bars represent +/−SEM) unless otherwise specified.
CHO cells stably expressing hM1, hM2/Gqi5, hM3, hM4/Gqi5, hM5, rM1/Gqi5, rM3, rM4/Gqi5, or rM5 were plated in the manner described above. […] FDSS protocols were carried out as described above; the static ratio was calculated and the minimum response subtracted from the maximum response within the timeframe of each addition. This max-min response was then normalized to the maximum acetylcholine response. Calculation of IC50 was performed using the percent maximum acetylcholine response for the EC80 addition through the Vortex and Studies modules of the Dotmatics data management software. Results are stored in the Dotrnatics database and an audit trail of any changes to their analysis is generated. Data shown represent mean values obtained from at least three independent determinations performed in triplicate or greater (error bars represent±SEM) unless otherwise specified.

Row | SMILES | IC50 [nM]
1 | [2H]C([2H])([2H])n1nc(Cl)c(S(=O)(=O)N2CCC(c3cn4ncnc4c(F)c3C)CC2)c1C [Compound 319, 6-(1-((3-chloro-5-methyl-1-(methyl-d3)-1H-pyrazol-4-yl)sulfonyl)piperidin-4-yl)-8-fluoro-7-methyl-[1,2,4]triazolo[1,5-a]pyridine] | 12
2 | Cc1cc2ncnn2cc1C1CCN(S(=O)(=O)c2ccc3ncn(C)c3c2)CC1 [Compound 188, 7-methyl-6-(1-((1-methyl-1H-benzo[d]imidazol-6-yl)sulfonyl)piperidin-4-yl)-[1,2,4]triazolo[1,5-a]pyridine] | 105
3 | Cc1cn2cc(C3CCN(S(=O)(=O)c4ccc5c(c4)CCO5)CC3)ncc2n1 [Compound 18, 6-(1-((2,3-dihydrobenzofuran-5-yl)sulfonyl)piperidin-4-yl)-2-methylimidazo[1,2-a]pyrazine] | > 10000
4 | Cc1cc2ncnn2cc1C1CCN(S(=O)(=O)c2c[nH]cn2)CC1 [Compound 155, 6-(1-((1H-imidazol-4-yl)sulfonyl)piperidin-4-yl)-7-methyl-[1,2,4]triazolo[1,5-a]pyridine] | > 10000
5 | Cc1cc2nccn2nc1C1=CCN(S(=O)(=O)c2ccc3c(c2)CCO3)CC1 [Compound 34, 6-(1-((2,3-dihydrobenzofuran-5-yl)sulfonyl)-1,2,3,6-tetrahydropyridin-4-yl)-7-methylimidazo[1,2-b]pyridazine] | > 10000
6 | Cc1cc2nccn2nc1C1CCN(S(=O)(=O)c2cc3c(cc2F)OCC3)CC1 [Compound 52, 6-(1-((6-fluoro-2,3-dihydrobenzofuran-5-yl)sulfonyl)piperidin-4-yl)-7-methylimidazo[1,2-b]pyridazine] | 5500
7 | CCc1cc2ncnn2cc1C1CCN(S(=O)(=O)c2c(Cl)nc3sccn23)CC1 [Compound 336, 6-chloro-5-((4-(7-ethyl-[1,2,4]triazolo[1,5-a]pyridin-6-yl)piperidin-1-yl)sulfonyl)imidazo[2,1-b]thiazole] | 106
8 | Cc1cc2nccn2nc1C1CCN(S(=O)(=O)c2ccc3ncccc3c2)CC1 [Compound 39, 6-((4-(7-methylimidazo[1,2-b]pyridazin-6-yl)piperidin-1-yl)sulfonyl)quinoline] | > 10000
9 | Cn1cnc2cc(C3CCN(S(=O)(=O)c4ccc5ncsc5c4)CC3)ccc21 [Compound 8, 6-((4-(1-methyl-1-benzo[d]imidazol-5-yl)piperidin-1-yl)sulfonyl)benzo[d]thiazole] | > 10000
10 | Cc1cc2ncnn2cc1C1CCN(S(=O)(=O)c2cccc3nn(C)cc23)CC1 [Compound 290, 7-methyl-6-(1-((2-methyl-2H-indazol-4-yl)sulfonyl)piperidin-4-yl)-[1,2,4]triazolo[1,5-a]pyridine] | 1200
11 | Cc1cc2ncnn2cc1C1CCN(S(=O)(=O)c2cnn3c2CCC3)C(C)C1 (centres unmarked) [Compound 363, 6-(1-((5,6-dihydro-4H-pyrrolo[1,2-b]pyrazol-3-yl)sulfonyl)-2-methylpiperidin-4-yl)-7-methyl-[1,2,4]triazolo[1,5-a]pyridine] | 618
12 | Cc1ccncc1C1CCN(S(=O)(=O)c2cnn3c2OCCC3)CC1 [Compound 386, 3-((4-(4-methylpyridin-3-yl)piperidin-1-yl)sulfonyl)-6,7-dihydro-5H7-pyrazolo[5,1-b][1,3]oxazine] | 4620
13 | Cn1ncc(S(=O)(=O)N2CCC(c3cn4ncnc4cc3Cl)CC2)c1C(F)(F)F [Compound 330, 7-chloro-6-(1-((1-methyl-5-(trifluoromethyl)-1H-pyrazol-4-yl)sulfonyl)piperidin-4-yl)-[1,2,4]triazolo[1,5-a]pyridine] | 52
14 | Cc1ncc(S(=O)(=O)N2CCC(c3ccc4ncnn4c3)CC2)n1C [Compound 286, 6-(1-((1,2-dimethyl-1H-imidazol-5-yl)sulfonyl)piperidin-4-yl)-[1,2,4]triazolo[1,5-a]pyridine] | 2000
15 | Cc1c(C2=CCN(S(=O)(=O)c3ccc4c(c3)CCO4)CC2)cnc2ncnn12 [Compound 244, 6-(1-((2,3-dihydrobenzofuran-5-yl)sulfonyl)-1,2,3,6-tetrahydropyridin-4-yl)-7-methyl-[1,2,4]triazolo[1,5-a]pyrimidine] | > 10000

Same assay, conditions: CELL LINE hM5; vs EC80 acetylcholine; read-out: IC50

Row | SMILES | IC50 [nM]
16 | Cc1ncc(S(=O)(=O)N2CCC(c3cn4ccnc4cc3C)CC2)o1 [Compound 582, 2-methyl-5-((4-(7-methylimidazo[1,2-a]pyridin-6-yl)piperidin-1-yl)sulfonyl)oxazole] | 831
17 | Cc1cc2ncnn2cc1C1CCN(S(=O)(=O)c2cn(C)nn2)CC1 [Compound 572, 7-methyl-6-(1-((1-methyl-1H-1,2,3-triazol-4-yl)sulfonyl)piperidin-4-yl)-[1,2,4]triazolo[1,5-a]pyridine] | 42
18 | Cn1nc(-c2ccco2)cc1C1CCN(S(=O)(=O)c2cnn(C)c2Cl)CC1 [Compound 590, 1-((5-Chloro-1-methyl-1H-pyrazol-4-yl)sulfonyl)-4-(3-(furan-2-yl)-1-methyl-1H-pyrazol-5-yl)piperidine] | 3100
19 | Cc1c(S(=O)(=O)N2CCC(c3cn4ncnc4cc3C(=O)N(C)C)CC2)cnn1C [Compound 471, 6-(1-((1,5-dimethyl-1H-pyrazol-4-yl)sulfonyl)piperidin-4-yl)-N,N-dimethyl-[1,2,4]triazolo[1,5-a]pyridine-7-carboxamide] | > 10000
20 | Cc1nc2n(c1C1CCN(S(=O)(=O)c3cnn(C)c3Cl)CC1)CCCC2 [Compound 463, 3-(1-((5-Chloro-1-methyl-1H-pyrazol-4-yl)sulfonyl)piperidin-4-yl)-2-methyl-5,6,7,8-tetrahydroimidazo[1,2-a]pyridine] | 250
21 | Cc1c(S(=O)(=O)N2CCC(c3cn4ncnc4cc3C(C)(C)O)CC2)cnn1C [Compound 472, 2-(6-(1-((1,5-dimethyl-1H-pyrazol-4-yl)sulfonyl)piperidin-4-yl)-[1,2,4]triazolo[1,5-a]pyridin-7-yl)propan-2-ol] | > 10000
22 | Cc1cc2ncnn2cc1C1(F)CCN(S(=O)(=O)c2cnn(C)c2C(F)(F)F)CC1 [Compound 423, 6-(4-fluoro-1-((1-methyl-5-(trifluoromethyl)-1H-pyrazol-4-yl)sulfonyl)piperidin-4-yl)-7-methyl-[1,2,4]triazolo[1,5-a]pyridine] | 912
23 | [2H]C1([2H])CC(c2cn3ncnc3cc2C(F)F)CC([2H])([2H])N1S(=O)(=O)c1cnc(C)o1 [Compound 594, 5-((4-(7-(difluoromethyl)-[1,2,4]triazolo[1,5-a]pyridin-6-yl)piperidin-1-yl-2,2,6,6-d4)sulfonyl)-2-methyloxazole] | 228
24 | [2H]C1([2H])CC(c2cn3ncnc3cc2Cl)CC([2H])([2H])N1S(=O)(=O)c1cnn(C)c1CC#N [Compound 621, 2-(4-((4-(7-chloro-[1,2,4]triazolo[1,5-a]pyridin-6-yl)piperidin-1-yl-2,2,6,6-d4)sulfonyl)-1-methyl-1H-pyrazol-5-yl)acetonitrile] | 43
25 | Cc1cc2ncnn2cc1C1(F)CCN(S(=O)(=O)c2cnn(C)c2Cl)CC1 [Compound 419, 6-(1-((5-chloro-1-methyl-1H-pyrazol-4-yl)sulfonyl)-4-fluoropiperidin-4-yl)-7-methyl-[1,2,4]triazolo[1,5-a]pyridine] | 36
26 | Cc1cc(S(=O)(=O)N2CCC(c3cn4ncnc4cc3C(F)(F)F)CC2)sn1 [Compound 495, 3-methyl-5-((4-(7-(trifluoromethyl)-[1,2,4]triazolo[1,5-a]pyridin-6-yl)piperidin-1-yl)sulfonyl)isothiazole] | 46
